Measured values taken from patent publication US12151021B2, “Implantable nanochannel delivery devices” (THE METHODIST HOSPITAL SYSTEM, priority 2015, dated 2024).
Where a name gives a salt, the structure may show the parent alone. Read-outs that look alike come from different tables or passages of the source. Values belong to the compound of their own block, whether it stands above or below them.

Tests used:
[1] = Magnevist release in vitro from PEEK nanochannel capsules (MR T1 mapping); assay type: physicochemical; conditions: at plateau beginning by Day 3; 47 mg/ml loading, PBS, 37 °C, n=4; approximation based on loading concentration
Method: The drug eluting fiducial markers were loaded with a number of different molecules to examine release kinetics into simulated physiological solution in vitro. In a series of experiments, the implants were loaded with ˜2.5 μL of OX86, FGK45, or Magnevist, placed in a 70 μL cuvette, and immersed in PBS. The cuvettes were sealed with tight-fitting lids and kept in an incubator at 37° C. The PBS solution was sampled and replaced daily. The OX86 and FGK45 release was quantified by micro-BCA assay (Sigma-Aldrich). The Magnevist was quantified through MR scanning. (7 T magnet, cut-down 96-well plate in a wrist coil). An additional experiment for quantifying IgG release was conducted similarly, but at room temperature and quantified via UV-Vis spectroscopy at 280 nm sampled every 10 minutes.
PEEK nanochannel capsules loaded with Magnevist (n=4) were immersed in 500 μl of PBS in microvolume cuvettes sealed with tight-fitting lids. These microvolume cuvettes were then placed in a 37° C. incubator. The 500 μl of sink solution were sampled and replaced daily for 7 days. The sink samples were stored at 4° C. Magnevist concentration within the samples was quantified through MR imaging of the samples within a custom-built 49 well plate (7×7) with 300 μl well volumes. […]

[2] = design: species or system C57B16 mice; conditions: mouse, in vivo
Method: All animal procedures described herein followed IACUC protocols approved by their requisite institutions. C57B16 mice were implanted with 10^6 melanoma cells (B16F10) in the upper thigh (n=5). Once tumors reached 12 mm in its longer axis, sterile nanochannel implants loaded with 470 mg/ml of Magnevist were percutaneously implanted into the tumors with a 15 G, percutaneous trocar at a 90°angle from the axial axis of the tumor. Briefly, rodents were anesthetized with 3% isofluorane and immobilized within a sterile field. The percutaneous implantation site was cleaned with chlorhexidine and 70% ethanol and all nearby hair was shaved. The trocar was inserted to the target depth of approximately 5 mm. The nanochannel capsule was extruded through manual pressure with the obturator and the trocar was removed. A single drop of bupivicaine was added to the implantation site. The implantation site was closed with suture to ensure implant immobility and restrict animal agitation of the site. The mice had secondary heating maintained throughout the procedure and until they recovered from anesthesia.
For the in vivo MR imaging, T1- and T2-weighted images were acquired axially with respect to the laboratory frame of reference on a 7 T Bruker BioSpec Scanner (Bruker Biospin, Billerica, MA, USA). […]

[3] = Doxorubicin release in vitro from nanochannel capsules (UV-Vis at 479 nm); assay type: physicochemical; conditions: in 4 days; capsules with 20 nm nanochannels, loading solution 0.58 mg/ml, 23 °C, n=5
Method: Doxorubicin loaded nanochannel capsules (n=5) were immersed in 400 μl of Millipore water in microvolume spectroscopy cuvettes sealed with tight-fitting lids. Absorbance measures were taken every 10 min for 9 days at 479 nm by a custom-built robotic carousel (Quantum Northwest, Inc.) connected to a UV-Vis spectrophotometer (Cary 50, Agilent Technologies, Inc.). The 479 nm wavelength was selected as optimal for doxorubicin with this system by prior full spectrum analysis. The cuvettes were maintained at 23±0.3° C. for the duration of the experiment. Data were normalized with respect to a Millipore water blank, and the cumulative release of the agents was obtained through comparison to a standard curve.
The nanochannel capsules were loaded with Doxorubicin and placed in isotonic conditions in vitro to characterize their release kinetics. The nanochannel capsules were immersed in PBS within microvolume cuvettes, which were sealed with tight-fitting lids. Release into the sink solution was measured via absorbance measurements at 479 nm by a robotic 48-cell carousel (Quantum Northwest, Inc.) linked to a UV-Vis Spectrophotometer (Cary 50, Agilent Technologies, Inc.). Overall drug release was evaluated via comparison of measured absorbances to standard curves following normalization with respect to initial conditions (t=0).

[4] = from BioNumbers (Milo et al.), cited from earlier work

loaded Magnevist released [1]: 85%
distance from implant's exterior at which observable enhancement begins [2]: 2-5 mm
thickness of band of observable enhancement [2]: approximately 1 mm
Compound: CNC[C@H](O)[C@@H](O)[C@H](O)[C@H](O)CO.CNC[C@H](O)[C@@H](O)[C@H](O)[C@H](O)CO.O=C([O-])CN(CCN(CC(=O)[O-])CC(=O)O)CCN(CC(=O)[O-])CC(=O)O.[Gd+3] [Magnevist, gadopentetate dimeglumine]

release depleted fraction of the reservoir volume [3]: around 80%
Compound: COc1cccc2c1C(=O)c1c(O)c3c(c(O)c1C2=O)C[C@@](O)(C(=O)CO)C[C@@H]3O[C@H]1C[C@H](N)[C@H](O)[C@H](C)O1 [Doxorubicin, Doxorubicin hydrochloride salt]

Compound: Immunoglobulin G
hydrodynamic radius [4]: 6.4 nm
hydrodynamic radius ([4]; listed as IgG isotype immunoproteins): approximately 6.4 nm
